Measured values taken from patent publication US20110076293A1, “TRIPTOLIDE DERIVATIVES FOR MODULATION OF APOPTOSIS AND IMMUNOSUPPRESSION” (priority 2002, published 2011).
Structures can show the parent of a compound that is named as a salt. Where two headings read alike, the source gives them in different places.

Experiments:
[1] = in vitro; conditions: for half-life: human, plasma; for max. conversion at 48 hr in human plasma by HPLC: incomplete conversion to triptolide, 48 hr incubation
Experimental: (§1) Compounds of formula I, as shown in Table 1 above and in the Examples, were assayed for their capacity to induce apoptosis in cells from the Jurkat human T lymphocyte cell line, after incubation with pooled human serum for varying periods of time at 37° C. (see Example 19). An ester prodrug, triptolide-14-succinate, designated PG490-88, was included for comparison. The extent of conversion to triptolide after such incubation was also independently determined by HPLC analysis.
Prodrug conversions to triptolide as determined independently by HPLC are given in […].

[2] = test system: Jurkat human T lymphocyte cell line; assay: Apoptosis assay (Annexin V) of compounds incubated with human serum
Experimental: as §1
The ED50 values (column 3) are calculated directly from the data in each experiment, and the % conversion values (column 4) are calculated as percent of the ED50 value produced by triptolide, designated PG490, incubated in the same plasma (i.e. in the same experiment).
A. Incubation of compounds with human serum. Pooled human serum was stored in aliquots at −80° C. Test compounds were added at 20 mM to thawed human serum in 1.5 ml microfuge tubes and incubated at 37° C. in a water bath for varying periods of time. The test samples were placed on ice until dilution for the bioassay. Controls consisted of the compounds incubated in complete tissue culture medium (RPMI 1640 medium plus 5% heat-inactivated fetal calf serum, 1% HEPES, 1% pen/strep, 1% glutamine) rather than human serum.
B. Apoptosis assay of compounds incubated with human serum. Test samples were diluted to 1 mM in complete tissue culture medium. Aliquots were placed in microculture plates and serial dilutions were prepared so that the final concentration would encompass the range of 1 to 10,000 nM with half-log increments. Cells from an exponentially expanding culture of the Jurkat human T lymphocyte cell line (#TIB-152 obtained from American Type Culture Collection, Manassas, Va.) were harvested, washed once by centrifugation and dilution in complete tissue culture medium, and diluted to a concentration of 1×10^6 cells/ml. A volume of 100 μl of Jurkat cells (1×10^5 cells) was added to wells containing 100 μl of the diluted compounds, and the plates were incubated at 37° C. in a 5% CO2 incubator. After 24 hours, the plates were centrifuged to pellet the cells, and the cells were washed twice with 2% heat-inactivated fetal calf serum in PBS. To each well, 500 ul of binding buffer was added according to the Annexin V assay procedure (BioVision, Inc., Mountain View, Calif.). Next, 5 μl of the fluorescein isothiocyanate (FITC) conjugate of Annexin V (BioVision, Inc.) was added to each well, followed by 5 minutes of incubation in the dark. In some assays, propidium iodide (BioVision, Inc.) was added at this stage to check for necrotic cells. The contents of the wells were individually transferred into test tubes, and apoptosis was analyzed using a FACSCalibur flow cytometer (BD Immunocytometry Systems, San Jose, Calif.). Cells positive for Annexin V binding were considered to be apoptotic, and the data were calculated as percent apoptotic cells.
(§2) C. Comparison of bioactivities after incubation of compounds in human serum. The data were plotted as the concentration of compound incubated in serum versus percent apoptotic cells. The concentration of compound inducing 50% apoptosis (ED50) was calculated from these dose response curves. […] This percentage conversion was used to compare the bioactivity of various compounds after incubation in human serum.

[3] = test system: IL-2 production in Jurkat human T lymphocyte cells; assay: IL-2 production assay for activity of compounds incubated with human serum; conditions: for IC50: IL-2 production in Jurkat cells after incubation with pooled human serum for 48 hours at 37° C.; for Conversion (%): percent of the IC50 value produced by triptolide (PG490) in the same experiment, human serum 48 hours
Experimental: Several compounds of formula I were analyzed for their capacity to inhibit IL-2 production in Jurkat human T lymphocyte cells, after incubation with pooled human serum for 48 hours at 37° C. (see Example 20). An ester prodrug, triptolide-14-succinate, designated PG490-88, was included for comparison.
The IC50 values (column 1) are calculated directly from the data in each experiment. The % conversion values (column 2) are calculated as the percent of the IC50 value produced by triptolide, designated PG490, incubated in the same plasma (i.e. in the same experiment).
A. IL-2 production assay for activity of compounds incubated with human serum. Test samples were diluted to 1 mM in complete tissue culture medium. […] Cells from an exponentially expanding culture of the Jurkat human T lymphocyte cell line (#TIB-152 obtained from American Type Culture Collection, Manassas, Va.) were harvested, washed once by centrifugation and dilution in complete tissue culture medium, and diluted to a concentration of 2×10^6 cells/ml. A volume of 50 μl of Jurkat cells (1×10^5 cells) was added to wells containing 100 μl of the diluted compounds, 50 μl of PMA (10 ng/ml) was added to each well, and the plates were incubated at 37° C. in a 5% CO2 incubator. After 24 hours, the plates were centrifuged to pellet the cells, 150 μl of supernatant was removed from each well, and the samples were stored at −20° C. The stored supernatants were analyzed for human IL-2 concentration using the Luminex 100 (Luminex Corporation, Austin, Tex.), Luminex microspheres coupled with anti-IL-2 capture antibody, and fluorochrome-coupled anti-IL-2 detection antibody. The data were expressed as ng/ml of IL-2.
as §2, with “B.” for “C.”, “IL-2 concentration.” for “percent apoptotic cells.”, “inducing a” for “inducing”, “decrease in the IL-2 concentration (IC50)” for “apoptosis (ED50)”

[4] = Homo sapiens, Jurkat, 48 h, read-out: ED50 (nM) in apoptosis assay after incubation with serum, incubation time in human serum 48 hours, 37° C.
[5] = incubation time in human serum 48 hours
[6] = incubation time in human serum 1 hour

SMILES	half-life [1]	EC50 [2, 4]	Conversion, as relative ED50 compared to triptolide (%) [2, 5]	IC50 ([3]; Homo sapiens, Jurkat, 48 h)	Conversion (%) [3]	EC50 ([2]; Homo sapiens, Jurkat, 0.5 h, read-out: ED50 (nM) in apoptosis assay after incubation with serum, incubation time in human serum 0.5 hours, 37° C.)	Conversion, as relative ED50 compared to triptolide (%) ([2]; incubation time in human serum 0.5 hours)	EC50 ([2]; Homo sapiens, Jurkat, 1 h, read-out: ED50 (nM) in apoptosis assay after incubation with serum, incubation time in human serum 1 hour, 37° C.)	Conversion, as relative ED50 compared to triptolide (%) [2, 6]	IC50 [3]	EC50 ([2]; read-out: ED50 (nM) in apoptosis assay after incubation with serum, incubation time in human serum 1 hour, 37° C.)	max. conversion at 48 hr in human plasma by HPLC [1]
CC(C)[C@]12O[C@H]1[C@@H]1O[C@]13[C@]1(O[C@H]1C[C@H]1C4=C(CC[C@@]13C)C(=O)OC4)[C@@H]2OC(=O)Oc1ccccc1 [PG676, Triptolide 14-Phenyl Carbonate]	15 min	56 nM	96%	6 nM	84%							
CCOCCOC(=O)O[C@@H]1[C@@]2(C(C)C)O[C@H]2[C@@H]2O[C@]23[C@]12O[C@H]2C[C@H]1C2=C(CC[C@@]13C)C(=O)OC2 [PG679, Triptolide 14-Ethoxyethyl Carbonate]	11 min			12 nM	11%	39 nM	128%					
COC(=O)COC(=O)O[C@@H]1[C@@]2(C(C)C)O[C@H]2[C@@H]2O[C@]23[C@]12O[C@H]2C[C@H]1C2=C(CC[C@@]13C)C(=O)OC2 [PG680, Triptolide 14-Methoxycarbonylmethyl Carbonate]	9 min	58 nM	85%	3 nM	44%							
CC(C)[C@]12O[C@H]1[C@@H]1O[C@]13[C@]1(O[C@H]1C[C@H]1C4=C(CC[C@@]13C)C(=O)OC4)[C@@H]2OC(=O)OCCN(C)C [PG682, Triptolide 14-Dimethylaminoethyl Carbonate]	17 min	32 nM	146%		78%			66 nM	76%	23 nM		
CC(C)[C@]12O[C@H]1[C@@H]1O[C@]13[C@]1(O[C@H]1C[C@H]1C4=C(CC[C@@]13C)C(=O)OC4)[C@@H]2OC(=O)OCCN(C)C.Cc1ccc(S(=O)(=O)O)cc1 [PG682PTSA, p-Toluenesulfonate Salt of Triptolide 14-Dimethylaminoethyl Carbonate]	17 min				97%				89%	2 nM	57 nM	
CC(C)[C@]12O[C@H]1[C@@H]1O[C@]13[C@]1(O[C@H]1C[C@H]1C4=C(CC[C@@]13C)C(=O)OC4)[C@@H]2OC(=O)OCC(=O)O [PG687, Triptolide 14-Hydroxycarbonylmethyl Carbonate]			6%	61 nM	2%							10%
CC(C)[C@]12O[C@H]1[C@@H]1O[C@]13[C@]1(O[C@H]1C[C@H]1C4=C(CC[C@@]13C)C(=O)OC4)[C@@H]2OC(=O)OCC(=O)[O-].[Na+] [PG687Na, Sodium Salt of Triptolide 14-Hydroxycarbonylmethyl Carbonate]					1%					92 nM		10%
CC(C)[C@]12O[C@H]1[C@@H]1O[C@]13[C@]1(O[C@H]1C[C@H]1C4=C(CC[C@@]13C)C(=O)OC4)[C@@H]2OC(=O)OCC(=O)O [PG687tris, Tris(hydroxymethyl)aminomethane Salt of Triptolide 14-Hydroxycarbonyl-methyl Carbonate]		960 nM	6%	29 nM	6%							max. 10% at
